One experiment addresses T1, Bovine milk XO (Bos taurus, UniProt P80457).
T1 construct: Bovine milk XO (grade 1, ammonium sulfate suspension; Sigma-Aldrich); purchased Sigma-Aldrich; host or cells: bovine milk
Put plainly: Xanthine oxidase assay (Amplex Red). It is filed as biochemical. The settings on record: compounds at 25 μM and 50 μM (FIG. 4). As for the experimental part:
Bovine milk XO (grade 1, ammonium sulfate suspension; Sigma-Aldrich) was first desalted using PD-10 columns (Sephadex G-25, GE Healthcare Biosciences, Piscataway, N.J.) equilibrated in PBS. XO activity was assayed by measuring H2O2 production using the Amplex® Red assay. Reaction mixture contained: 0.02 U/mL XO, 25 mM Hepes, pH 7.4, containing 0.12 M NaCl, 3 mM KCl, 1 mM MgCl2, 0.1 mM Amplex® Red, and 0.32 U/mL of horse radish peroxidase (HRP), reaction was initiated by addition of 1 mM hypoxanthine. Fluorescence was quantified over time using a Biotek Synergy 4 Hybrid Multi-Mode Microplate Reader.
Data are expressed as % of vehicle control.

Experiment [1] relates to human pulmonary artery endothelial cells (HPAEC). In words: Superoxide production of HPAEC treated with high glucose. The settings on record: 25 mM glucose 24 hr, 25 μM compound. It is filed as cell-based. On the procedure:
(§1) Cos-Nox2, Cos-Nox1, human fibroblasts were cultured in DMEM, 10% FBS-supplemented media, human pulmonary artery endothelial cells were cultured in EBM2media containing growth factors (Lonza) and rat neonatal cardiomyocytes were cultured in DMEM/F12 (50/50) media supplemented with 5% horse serum, 100 μM BrdU and Insulin-Transferrin-Selenium (ITS, Gibco).
Superoxide (O2^•−) production from cell homogenates was calculated from the initial linear rate (over 10 min) of SOD-inhibitable cytochrome c reduction quantified at 550 nm using the extinction coefficient of 21.1 mM-1 cm-1 (Biotek Synergy 4 Hybrid Multi-Mode Microplate Reader). The oxidase assay buffer consisted of 65 mM sodium phosphate buffer (pH 7.0), 1 mM EGTA, 10 μM FAD, 1 mM MgCl2, 2 mM NaN3 and 0.2 mM cytochrome C.
Compounds 11g and 11h subsequently were tested in parenchymal cell lines where more than one Nox could be present and activated. Human pulmonary artery endothelial cells (HPAEC) were treated with high glucose (25 mM) for 24 hr in the presence or absence of the compounds. […] Under these conditions both compounds 11g and 11h attenuated the high glucose-stimulated superoxide production (FIG. 9).

For another experiment, the system named is human fibroblasts. Put plainly: PMA-stimulated ROS production by human fibroblasts. It counts as cell-based. The settings on record: 10 μM compound. As for the experimental part:
as §1
Compounds 11g and 11h also were evaluated for potential inhibitory activity in phorbol ester (PMA)-stimulated ROS production by human fibroblasts. As expected PMA, an activator of protein kinase C, stimulated superoxide production. This effect was attenuated by both compounds at a concentration of 10 μM (FIG. 11).

The target in experiment [2] is T2, p47^phox association with Nox2 (cytochrome b558) (Homo sapiens, UniProt P14598).
T2 construct: expressed in transfected cells
T2 sequence (P14598 1-390): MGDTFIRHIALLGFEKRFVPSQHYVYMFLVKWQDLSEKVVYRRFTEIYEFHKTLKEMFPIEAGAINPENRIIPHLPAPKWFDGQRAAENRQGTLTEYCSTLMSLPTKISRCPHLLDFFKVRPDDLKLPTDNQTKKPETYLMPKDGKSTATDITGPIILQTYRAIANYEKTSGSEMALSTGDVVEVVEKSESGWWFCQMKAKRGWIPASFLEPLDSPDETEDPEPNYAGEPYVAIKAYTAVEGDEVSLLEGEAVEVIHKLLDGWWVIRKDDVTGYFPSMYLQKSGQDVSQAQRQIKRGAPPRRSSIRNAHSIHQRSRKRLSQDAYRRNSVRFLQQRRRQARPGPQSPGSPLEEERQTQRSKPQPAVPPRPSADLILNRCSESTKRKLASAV
In words: Co-immunoprecipitation of Nox2/p47phox in Cos-Nox2 cells. It is filed as cell-based. The settings on record: Cos-Nox2 cells pre-incubated with compound. On the procedure: 300 μg of cell homogenates were diluted in 0.3 ml HBSS buffer and incubated with 1.25 μg of α-p47^phox antibody (Santa Cruz Biotechnology). After overnight incubation at 4° C. with constant agitation, 10 μl of Protein G-Agarose slurry were added to each sample to pull-down p47^phox: antibody complex. Beads were washed, boiled, run on PAGE-SDS gels and then blotted on nitrocellulose membrane. Western blot analysis was carried out using antibodies against p47^phox and Nox2. Bands were visualized using Odyssey software from Licor and then quantified using ImageJ software.
To interrogate a mode of Nox2 inhibition, in silico interaction analysis of pre-existing atomic structures was employed. […] To further investigate this type of interaction and inhibition, co-immunoprecipitation was used and p47^phox association with cytochrome b558 in Cos-Nox2 cells.

Experiment [3] has as its system rat neonatal cardiomyocytes. In words: ROS production of rat neonatal cardiomyocytes treated with high glucose. It counts as cell-based. The settings on record: 25 mM glucose, 25 μM compound. As for the experimental part:
as §1
(§2) To evaluate the pre-clinical potential of compounds 11g and 11h, the effects of high levels of glucose, which induce the generation of reactive oxygen species in cardiomyocytes and may contribute to the development of cardiomyopathy in diabetes, were evaluated. […] Furthermore, both compound 11g and compound 11h were able to reduce cardiomyocyte hypertrophy associated with high glucose challenge (FIG. 16).

For experiment [4], the system named is rat neonatal cardiomyocytes. Put plainly: Hypertrophy of rat neonatal cardiomyocytes treated with high glucose. The settings on record: 25 mM glucose, 25 μM compound. It is filed as cell-based. As for the experimental part:
as §1
Hypertrophy was assessed by measurement of cardiomyocytes length using ImageJ public domain software (developed by the National Institutes of Health).
as §2

Structures are written as SMILES.

T1 sequence (P80457 whole entry): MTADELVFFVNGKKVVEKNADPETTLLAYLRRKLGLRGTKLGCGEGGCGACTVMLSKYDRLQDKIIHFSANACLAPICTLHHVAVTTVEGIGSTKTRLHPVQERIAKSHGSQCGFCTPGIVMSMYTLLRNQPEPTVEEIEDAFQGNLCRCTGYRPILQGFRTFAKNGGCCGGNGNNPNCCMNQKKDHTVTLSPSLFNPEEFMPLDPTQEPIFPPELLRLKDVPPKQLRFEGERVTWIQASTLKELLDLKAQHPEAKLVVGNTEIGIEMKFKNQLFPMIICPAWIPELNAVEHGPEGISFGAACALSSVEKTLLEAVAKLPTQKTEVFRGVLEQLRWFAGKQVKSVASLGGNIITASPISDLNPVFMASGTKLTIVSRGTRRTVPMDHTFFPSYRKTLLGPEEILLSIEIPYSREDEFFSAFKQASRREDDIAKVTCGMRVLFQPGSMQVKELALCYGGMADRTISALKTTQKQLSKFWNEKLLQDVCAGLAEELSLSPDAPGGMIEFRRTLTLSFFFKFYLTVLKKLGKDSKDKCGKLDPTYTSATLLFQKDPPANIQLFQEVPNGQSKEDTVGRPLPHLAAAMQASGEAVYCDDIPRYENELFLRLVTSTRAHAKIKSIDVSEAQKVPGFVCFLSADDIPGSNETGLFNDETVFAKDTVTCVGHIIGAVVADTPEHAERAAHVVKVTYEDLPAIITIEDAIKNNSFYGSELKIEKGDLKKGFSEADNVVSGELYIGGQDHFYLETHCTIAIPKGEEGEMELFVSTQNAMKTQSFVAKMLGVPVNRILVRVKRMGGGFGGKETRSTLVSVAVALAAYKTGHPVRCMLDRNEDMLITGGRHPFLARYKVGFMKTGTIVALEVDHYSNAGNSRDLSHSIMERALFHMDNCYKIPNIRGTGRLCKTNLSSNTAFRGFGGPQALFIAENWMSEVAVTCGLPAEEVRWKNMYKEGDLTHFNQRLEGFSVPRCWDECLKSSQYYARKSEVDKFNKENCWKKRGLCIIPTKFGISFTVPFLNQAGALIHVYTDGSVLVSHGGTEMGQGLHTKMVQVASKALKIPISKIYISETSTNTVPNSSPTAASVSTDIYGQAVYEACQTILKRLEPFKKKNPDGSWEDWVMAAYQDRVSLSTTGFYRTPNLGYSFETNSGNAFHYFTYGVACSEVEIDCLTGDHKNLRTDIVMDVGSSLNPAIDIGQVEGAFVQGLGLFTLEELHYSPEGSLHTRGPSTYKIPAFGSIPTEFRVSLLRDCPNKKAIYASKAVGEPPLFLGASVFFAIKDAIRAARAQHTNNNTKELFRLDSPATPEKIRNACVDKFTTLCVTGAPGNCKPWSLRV

In the case of `C=C(C)CC1C2c3c(Br)cccc3C(CC2(C)C)N1CCCCC` (racemic) [Compound 11g, (±)-(1S,4R,9S)-5-Bromo-3,3-dimethyl-9-(2-methylallyl-10-pentyl-1,2,3,4-tetrahydro-1,4-(epiminomethano)naphthalene], on Bovine milk XO, the “Effect on ROS production by xanthine oxidase” value is “virtually no effect”. In addition, the “High glucose-stimulated superoxide production” value in experiment [1] is on record as “attenuated”. Also, the “PMA-stimulated superoxide production” value with human fibroblasts is “attenuated”. Further, in experiment [2], the “Attenuation of PMA-promoted p47phox/Nox2 interaction (co-immunoprecipitation)” value is reported as 34.3±6.07%. Moreover, the “High glucose-dependent ROS production in rat cardiomyocytes” value in experiment [3] is “ameliorated”. For the same compound, the “Cardiomyocyte hypertrophy with high glucose challenge” value in experiment [4] is reported as “reduce”.
Take `C=C(C)CC1C2c3c(Br)cccc3C(CC2(C)C)N1Cc1cccs1` (racemic) [Compound 11h, (±)-(1S,4R,9S)-5-Bromo-3,3-dimethyl-9-(2-methylallyl)-10-(thiophen-2-ylmethyl)-1,2,3,4-tetrahydro-1,4-(epiminomethano)naphthalene]: on Bovine milk XO, the “Effect on ROS production by xanthine oxidase” value was “virtually no effect”. Besides, in experiment [1], the “High glucose-stimulated superoxide production” value is on record as “attenuated”. Further, in the experiment with human fibroblasts, the “PMA-stimulated superoxide production” value is recorded as “attenuated”. Also, in experiment [2], the “Attenuation of PMA-promoted p47phox/Nox2 interaction (co-immunoprecipitation)” value is listed as 33.45±6.08%. In experiment [3], the “High glucose-dependent ROS production in rat cardiomyocytes” value is listed as “ameliorated”. For the same compound, the “Cardiomyocyte hypertrophy with high glucose challenge” value in experiment [4] is on record as “reduce”.
